In patent US11427548B2 (Arvinas Operations, Inc., priority 2015, dated 2022):
Like-named read-outs stand apart in the source and are kept apart here.

Key:
Androgen Receptor [1] = molecular target: T1, Androgen Receptor (Homo sapiens, UniProt P10275); assay: Androgen Receptor ELISA assay (PathScan AR ELISA) in VCaP cells: AR degradation, Dmax and DC50; assay type: cell-based
T1 construct: endogenous in cells; host or cells: VCaP cells
T1 sequence (P10275 1-920): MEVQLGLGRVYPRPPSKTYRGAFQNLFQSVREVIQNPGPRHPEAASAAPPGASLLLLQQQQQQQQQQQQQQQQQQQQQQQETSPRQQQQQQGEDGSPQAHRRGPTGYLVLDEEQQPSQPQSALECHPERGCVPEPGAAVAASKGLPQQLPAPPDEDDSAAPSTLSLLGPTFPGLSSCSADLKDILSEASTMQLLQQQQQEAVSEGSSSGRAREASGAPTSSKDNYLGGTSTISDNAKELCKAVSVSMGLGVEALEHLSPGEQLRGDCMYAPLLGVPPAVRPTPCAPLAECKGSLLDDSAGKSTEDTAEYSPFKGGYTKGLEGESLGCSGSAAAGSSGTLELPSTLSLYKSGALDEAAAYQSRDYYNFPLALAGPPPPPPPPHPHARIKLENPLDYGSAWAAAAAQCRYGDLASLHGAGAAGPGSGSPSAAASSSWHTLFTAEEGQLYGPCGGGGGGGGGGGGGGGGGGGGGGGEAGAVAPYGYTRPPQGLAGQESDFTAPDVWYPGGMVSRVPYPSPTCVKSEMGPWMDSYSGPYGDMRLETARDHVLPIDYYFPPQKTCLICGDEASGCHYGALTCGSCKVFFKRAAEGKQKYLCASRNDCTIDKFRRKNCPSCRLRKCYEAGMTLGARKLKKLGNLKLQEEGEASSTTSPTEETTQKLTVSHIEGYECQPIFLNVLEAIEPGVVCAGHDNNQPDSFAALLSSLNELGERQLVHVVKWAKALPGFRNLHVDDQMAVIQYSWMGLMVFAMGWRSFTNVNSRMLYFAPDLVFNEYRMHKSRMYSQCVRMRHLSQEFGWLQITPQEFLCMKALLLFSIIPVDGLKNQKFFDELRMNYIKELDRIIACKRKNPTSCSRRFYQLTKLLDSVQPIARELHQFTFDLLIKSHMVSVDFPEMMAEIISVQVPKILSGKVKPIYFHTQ
Procedure, shortened: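 VCaP cells, 30,000/well, grown ≥3 days in phenol red-free RPMI with 5% charcoal-stripped FBS; compound added in 0.1% DMSO with 0.1 nM R1881, 7 half-log doses, 24 h. Lysate AR quantified by PathScan sandwich ELISA, HRP/TMB read at 450 nm, giving DC50 and Dmax.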

Androgen Receptor [2] = molecular target: T2, Androgen Receptor (Homo sapiens, UniProt P10275+P40337, T878A); assay: Androgen Receptor ELISA assay (PathScan AR ELISA) in LNCaP cells: AR degradation, Dmax and DC50; assay type: cell-based; conditions: for DC50: concentration that caused 50% Androgen Receptor degradation
T2 construct: Compounds have been evaluated in this assay in LNCaP and/or VCaP cells utilizing similar protocols; endogenous in cells; host or cells: LNCaP cells
T2 sequence (P10275 whole entry T878A): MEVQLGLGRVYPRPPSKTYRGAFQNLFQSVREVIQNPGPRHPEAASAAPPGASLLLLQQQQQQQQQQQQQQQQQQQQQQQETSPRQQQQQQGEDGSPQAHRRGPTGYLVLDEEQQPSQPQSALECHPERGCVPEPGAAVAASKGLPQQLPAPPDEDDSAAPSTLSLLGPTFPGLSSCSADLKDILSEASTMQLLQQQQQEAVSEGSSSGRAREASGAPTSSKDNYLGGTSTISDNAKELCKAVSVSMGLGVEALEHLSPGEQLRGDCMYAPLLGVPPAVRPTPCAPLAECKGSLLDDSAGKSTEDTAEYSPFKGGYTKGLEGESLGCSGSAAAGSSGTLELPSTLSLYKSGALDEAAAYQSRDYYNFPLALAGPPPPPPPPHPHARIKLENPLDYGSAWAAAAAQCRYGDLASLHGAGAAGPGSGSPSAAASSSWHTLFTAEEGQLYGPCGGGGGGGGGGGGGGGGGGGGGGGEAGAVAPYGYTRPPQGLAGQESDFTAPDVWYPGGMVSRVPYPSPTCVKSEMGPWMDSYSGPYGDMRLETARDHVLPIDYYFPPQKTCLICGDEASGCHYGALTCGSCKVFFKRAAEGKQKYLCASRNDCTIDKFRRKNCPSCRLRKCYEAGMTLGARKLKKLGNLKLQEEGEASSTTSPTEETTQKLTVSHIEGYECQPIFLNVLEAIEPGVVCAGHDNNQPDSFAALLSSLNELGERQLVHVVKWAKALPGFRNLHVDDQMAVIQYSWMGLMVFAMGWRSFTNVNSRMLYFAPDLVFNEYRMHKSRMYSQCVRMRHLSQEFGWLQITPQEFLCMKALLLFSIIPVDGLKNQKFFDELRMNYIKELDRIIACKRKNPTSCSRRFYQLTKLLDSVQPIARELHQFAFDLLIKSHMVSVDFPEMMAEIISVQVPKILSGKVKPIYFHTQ
T2 sequence (P40337 whole entry): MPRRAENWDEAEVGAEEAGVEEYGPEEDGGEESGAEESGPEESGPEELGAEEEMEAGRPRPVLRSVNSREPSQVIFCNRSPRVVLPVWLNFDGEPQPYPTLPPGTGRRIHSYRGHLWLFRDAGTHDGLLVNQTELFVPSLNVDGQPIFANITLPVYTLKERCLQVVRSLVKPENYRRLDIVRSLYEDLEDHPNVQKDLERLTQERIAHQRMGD
T2 sequence (Q15369 whole entry partner): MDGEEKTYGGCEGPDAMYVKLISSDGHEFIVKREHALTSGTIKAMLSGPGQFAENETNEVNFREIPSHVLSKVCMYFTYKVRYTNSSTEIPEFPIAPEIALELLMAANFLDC
T2 sequence (Q15370 whole entry partner): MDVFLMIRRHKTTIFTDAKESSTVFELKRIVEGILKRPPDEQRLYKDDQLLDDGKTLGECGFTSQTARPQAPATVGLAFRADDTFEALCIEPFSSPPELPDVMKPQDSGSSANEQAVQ

[3] = read-out: VCaP DC50; concentration that caused 50% Androgen Receptor degradation, VCaP cells
[4] = highest percentage of Androgen Receptor degradation observed
[5] = highest percentage of Androgen Receptor degradation
[6] = read-out: VCaP DC50; VCaP cells; concentration that caused 50% Androgen Receptor degradation

SMILES	Dmax (Androgen Receptor [1]; VCaP, read-out: VCaP Dmax (%)) [%]	DC50 (Androgen Receptor [1]; [3]) [nM]	DC50 (Androgen Receptor [2]) [nM]	Dmax (Androgen Receptor [2]; [4]) [%]	DC50 (Androgen Receptor [1]; concentration that caused 50% Androgen Receptor degradation, VCaP cells; read-out: VCaP DC50) [nM]	VCaP Dmax (%) (Androgen Receptor [1]; highest percentage of Androgen Receptor degradation observed, VCaP cells)	LNCaP Dmax (%) (Androgen Receptor [2]; [4])	Dmax (Androgen Receptor [2]; [5]) [%]	DC50 (Androgen Receptor [1]; [6]) [nM]
Cc1ncsc1-c1ccc(CNC(=O)[C@@H]2C[C@@H](O)CN2C(=O)[C@@H](NC(=O)COCCCOc2ccc(-c3ccc(N4C(=S)N(c5ccc(C#N)c(C(F)(F)F)c5)C(=O)C4(C)C)cc3)cc2)C(C)(C)C)cc1 [Example 77]	51 to 70	< 50	< 50	> 71	–	–	–	–	–
Cc1ncsc1-c1ccc(CNC(=O)[C@@H]2C[C@@H](O)CN2C(=O)[C@@H](NC(=O)COCCOc2ccc(-c3ccc(N4C(=S)N(c5ccc(C#N)c(C(F)(F)F)c5)C(=O)C4(C)C)cc3)cc2)C(C)(C)C)cc1 [Example 78]	51 to 70	< 50	< 50	> 71	–	–	–	–	–
Cc1ncsc1-c1ccc([C@H](C)NC(=O)[C@@H]2C[C@@H](O)CN2C(=O)[C@@H](NC(=O)COCCOCCOc2ccc(-c3ccc(N4C(=S)N(c5ccc(C#N)c(C(F)(F)F)c5)C(=O)C4(C)C)cc3F)cc2)C(C)(C)C)cc1 [Example 79, (2S,4R)-l-[(2S)-2-[2-(2-{2-[4-(4-{3-[4-cyano-3-(trifluoromethyl)phenyl]-5,5-dimethyl-4-oxo-2-sulfanylideneimidazolidin-1-yl}-2-fluorophenyl)phenoxy]ethoxy}ethoxy)acelamido]-3,3-dimethylbutanoyl]-4-hydroxy-N-[(1S)-l-[4-(4-methyl-l,3-thiazol-5-yl)phenyl]ethyl]pyrrolidine-2-carboxamide]	–	–	< 50	–	< 50	+++ (51% ≤ Dmax ≤ 70%)	++++ (71% ≤ Dmax)	–	–
Cc1ncsc1-c1ccc(CNC(=O)[C@@H]2C[C@@H](O)CN2C(=O)[C@@H](NC(=O)COCCCCOCCN2CCC(c3ccc(N4C(=S)N(c5ccc(C#N)c(C(F)(F)F)c5)C(=O)C4(C)C)cc3)CC2)C(C)(C)C)cc1 [Example 81, (2S,4R)-1-((S)-2-(2-(4-(2-(4-(4-(3-(4-cyano-3-(trifluoromethyl)phenyl)-5,5-dimethyl-4-oxo-2-thioxoimidazolidin-1-yl)phenyl)piperidin-1-yl)ethoxy)butoxy)acetamido)-3,3-dimethylbutanoyl)-4-hydroxy-N-(4-(4-methylthiazol-5-yl)benzyl)pyrrolidine-2-carboxamide]	< 25	51 to 500	> 501	51 to 70	–	–	–	–	–
Cc1ncsc1-c1ccc(CNC(=O)[C@@H]2C[C@@H](O)CN2C(=O)[C@@H](NC(=O)COCCCOCCCOc2ccc(N3C(=S)N(c4ccc(C#N)c(C(F)(F)F)c4)C(=O)C3(C)C)cc2)C(C)(C)C)cc1 [Example 238]	< 25	–	51 to 500	–	–	–	–	51 to 70	–
Cc1ncsc1-c1ccc(CNC(=O)[C@@H]2C[C@H](O)CN2C(=O)[C@@H](NC(=O)COCCCOCCCCCOc2ccc(N3C(=S)N(c4ccc(C#N)c(C(F)(F)F)c4)C(=O)C3(C)C)cc2)C(C)(C)C)cc1 [Example 242]	26 to 50	–	> 501	–	–	–	–	26 to 50	> 501
Cc1ncsc1-c1ccc(CNC(=O)[C@@H]2C[C@@H](O)CN2C(=O)[C@@H](NC(=O)COCCOCCCCCOc2ccc(N3C(=S)N(c4ccc(C#N)c(C(F)(F)F)c4)C(=O)C3(C)C)cc2)C(C)(C)C)cc1 [Example 247]	> 71	–	< 50	–	–	–	–	> 71	< 50
Cc1ncsc1-c1ccc(CNC(=O)[C@@H]2C[C@@H](O)CN2C(=O)[C@@H](NC(=O)CCCOCCOc2ccc(-c3ccc(N4C(=S)N(c5ccc(C#N)c(C(F)(F)F)c5)C(=O)C4(C)C)cc3)cc2)C(C)(C)C)cc1 [Example 260]	26 to 50	–	51 to 500	–	–	–	–	> 71	< 50
Cc1ncsc1-c1ccc(CNC(=O)[C@@H]2C[C@@H](O)CN2C(=O)[C@@H](NC(=O)c2cccc(OCCCCOc3ccc(N4C(=S)N(c5ccc(C#N)c(C(F)(F)F)c5)C(=O)C4(C)C)cc3)c2)C(C)(C)C)cc1 [Example 278]	51 to 70	–	51 to 500	–	–	–	–	> 71	< 50
Cc1ncsc1-c1ccc(CNC(=O)[C@@H]2C[C@@H](O)CN2C(=O)[C@@H](NC(=O)COCCCOCCOc2cccc(-c3ccc(N4C(=S)N(c5ccc(C#N)c(C(F)(F)F)c5)C(=O)C4(C)C)cc3)c2)C(C)(C)C)cc1 [Example 288]	26 to 50	–	< 50	–	–	–	–	> 71	< 50
Cc1ncsc1-c1ccc(CNC(=O)[C@@H]2C[C@@H](O)CN2C(=O)[C@@H](NC(=O)CCc2ccc(OCCCOc3ccc(N4C(=S)N(c5ccc(C#N)c(C(F)(F)F)c5)C(=O)C4(C)C)cc3)cc2)C(C)(C)C)cc1 [Example 292]	26 to 50	–	51 to 500	–	–	–	–	51 to 70	51 to 500
Cc1ncsc1-c1ccc(CNC(=O)[C@@H]2C[C@@H](O)CN2C(=O)[C@@H](NC(=O)COCCCCOC2CCN(C(=O)c3ccc(N4C(=S)N(c5ccc(C#N)c(C(F)(F)F)c5)C(=O)C4(C)C)cc3)CC2)C(C)(C)C)cc1 [Example 293]	< 25	–	51 to 500	–	–	–	–	51 to 70	–
Cc1ncsc1-c1ccc(CNC(=O)[C@@H]2C[C@@H](O)CN2C(=O)[C@@H](NC(=O)COCCCCCOC2CCN(C(=O)c3ccc(N4C(=S)N(c5ccc(C#N)c(C(F)(F)F)c5)C(=O)C4(C)C)cc3)CC2)C(C)(C)C)cc1 [Example 294]	26 to 50	–	51 to 500	–	–	–	–	26 to 50	51 to 500
Cc1ncsc1-c1ccc(CNC(=O)[C@@H]2C[C@@H](O)CN2C(=O)[C@@H](NC(=O)COCCCCCOCCCOc2ccc(N3C(=S)N(c4ccc(C#N)c(C(F)(F)F)c4)C(=O)C3(C)C)cc2)C(C)(C)C)cc1 [Example 295]	26 to 50	–	< 50	–	–	–	–	> 71	< 50
Cc1ncsc1-c1ccc(CNC(=O)[C@@H]2C[C@@H](O)CN2C(=O)[C@@H](NC(=O)COCCOc2cccc(CCCOc3ccc(N4C(=S)N(c5ccc(C#N)c(C(F)(F)F)c5)C(=O)C4(C)C)cc3)c2)C(C)(C)C)cc1 [Example 296]	26 to 50	–	51 to 500	–	–	–	–	> 71	< 50
Cc1ncsc1-c1ccc(CNC(=O)[C@@H]2C[C@@H](O)CC2C(=O)[C@H](C(C)C)N2Cc3ccccc3C2=O)c(OCCOC2CCCC[C@@H]2OCCOc2ccc(N3C(=S)N(c4ccc(C#N)c(C(F)(F)F)c4)C(=O)C3(C)C)cc2)c1 (some centres unmarked) [Example 297]	26 to 50	–	> 501	–	–	–	–	26 to 50	–
Cc1ncsc1-c1ccc(CNC(=O)[C@@H]2C[C@@H](O)CN2C(=O)[C@@H](NC(=O)Cc2cccc(OCCCOCCOc3ccc(N4C(=S)N(c5ccc(C#N)c(C(F)(F)F)c5)C(=O)C4(C)C)cc3)c2)C(C)(C)C)cc1 [Example 298]	26 to 50	–	51 to 500	–	–	–	–	51 to 70	51 to 500
Cc1ncsc1-c1ccc(CNC(=O)[C@@H]2C[C@@H](O)CN2C(=O)[C@H](C(C)C)N2Cc3c(CCCOCCOc4ccc(N5C(=S)N(c6ccc(C#N)c(C(F)(F)F)c6)C(=O)C5(C)C)cc4)cccc3C2=O)cc1 [Example 299]	26 to 50	–	51 to 500	–	–	–	–	> 71	–
Cc1ncsc1-c1ccc(CNC(=O)[C@@H]2C[C@@H](O)CN2C(=O)[C@@H](NC(=O)CCCOCCOCCCOc2ccc(N3C(=S)N(c4ccc(C#N)c(C(F)(F)F)c4)C(=O)C3(C)C)cc2)C(C)(C)C)cc1 [Example 300]	51 to 70	–	< 50	–	–	–	–	51 to 70	< 50
Cc1ncsc1-c1ccc(CNC(=O)[C@@H]2C[C@@H](O)CN2C(=O)[C@@H](NC(=O)CCCOCCCOCCCOc2ccc(N3C(=S)N(c4ccc(C#N)c(C(F)(F)F)c4)C(=O)C3(C)C)cc2)C(C)(C)C)cc1 [Example 301]	51 to 70	–	< 50	–	–	–	–	51 to 70	–
Cc1ncsc1-c1ccc(CNC(=O)[C@@H]2C[C@@H](O)CN2C(=O)[C@@H](NC(=O)CCCOc2ccc(CCOc3ccc(N4C(=S)N(c5ccc(C#N)c(C(F)(F)F)c5)C(=O)C4(C)C)cc3)cc2)C(C)(C)C)cc1 [Example 302]	51 to 70	–	51 to 500	–	–	–	–	> 71	< 50
Cc1ncsc1-c1ccc(CNC(=O)[C@@H]2C[C@@H](O)CN2C(=O)[C@@H](NC(=O)CCc2ccc(OCCOc3ccc(N4C(=S)N(c5ccc(C#N)c(C(F)(F)F)c5)C(=O)C4(C)C)cc3)cc2)C(C)(C)C)cc1 [Example 303]	51 to 70	–	< 50	–	–	–	–	> 71	< 50
